Source: US20250154220A1, “INSULIN ANALOGS FOR THE TREATMENT OF HUMAN METABOLIC DISORDER AND DISEASE” (Ambio, Inc., priority 2023, published 2025)
“Also recorded” adds a separate entry of the source.

Key:
Sprague-Dawley (SD) rats [1] = test: Glucose levels in non-fasted Sprague-Dawley rats after subcutaneous injection; type: in vivo; details: for duration of decrease in glucose levels compared to rats injected with Degludec: over 120 hours; for glucose area under the curve (AUC) values: FIG. 9 (0-96 hour) and FIG. 15 (0-72 hour)
Experimental: (§1) Male Sprague-Dawley (SD) rats at the age of 8-10 weeks old were administered a dose of 175 nmol-200 nmol insulin analogs 1, 2, 3, 4, APi3545, APi3546, APi3547, and APi3549 through subcutaneous injection. Insulin Degludec was used as a positive control. A vehicle control consisted of glycerol (19.6 mg), metacresol (1.72 mg), phenol (1.50 mg), zinc acetate ([…]), and WFI to 1 mL.

Sprague-Dawley (SD) rats [2] = test: c-peptide levels in non-fasted Sprague-Dawley rats after subcutaneous injection; type: in vivo; details: 175 nmol-200 nmol s.c.; for duration of c-peptide level compared to rats injected with Degludec: over 120 hours
Experimental: as §1

[3] = Body weight of non-fasted Sprague-Dawley rats after subcutaneous injection; type: in vivo; details: SD rats, over 120 hours, FIG. 13 and FIG. 16
Experimental: as §1

ICR mice [4] = test: Biopotency in ICR mice against insulin reference standard, chapter <1211> of Chinese Pharmacopeia (blood glucose 40 min after injection); type: in vivo; details: low and high dosing solutions 0.05 and 0.1 IU/mL, blood 40 minutes after administration, FIG. 7
Experimental: The biopotency of the eight insulin analogs was determined by comparison with the insulin reference standard following chapter <1211> of Chinese Pharmacopeia. In particular, the insulin analogs and insulin reference standard were prepared with either diluent 1 or diluent 2. Diluent 1 comprises 0.9% sodium chloride at a pH of 2.5 (adjusted with HCl) and 0.2% phenol. Diluent 2 comprises 0.9% sodium chloride at a pH of 2.5 (adjusted with HCl). The insulin reference standard (27.2 IU/mg) and the insulin analogs (calculated as 25 IU/mg) were prepared with diluent 1. In addition, low- and high-dosing solutions (0.05 IU/mL and 0.1 IU/mL, respectively) of insulin reference standard and test analogs were prepared with diluent 2. Following chapter <1211> of Chinese Pharmacopeia, ICR mice (25-28 g, 6 animals per group) were injected with 0.2-0.3 mL of low and high dosing solution of the eight insulin analogs and insulin standard. Low and high doses of insulin standard and insulin analogs were administered to the mice following parallel design/protocol. […] The glucose concentration of each blood sample was determined by the glucose oxidase-peroxidase method (Roche blood glucose test strips). […] FIG. 6 summarizes the relative biopotency of the insulin analogs by comparing the calculated biopotency and measured biopotency.

ICR mice [5] = details: reference standard as labelled; cited from earlier work
[6] = Body weight of db/db mice measured daily for 3 days after single subcutaneous dose; type: in vivo; details: Day 1-3, 1.5 IU/mg Degludec, all dose levels of Analog #1, FIGS. 3A-3B
Experimental: (§2) Accordingly, the ability of insulin analog 1 (FIG. 1A) to control the glucose profile in a db/db type II diabetes model was tested. As a control, wild type m/m mouse strain was included in the study. Mice were male, between ages 6-8 weeks, and the total group size was 8. The insulin analogs were delivered as a subcutaneous single dose. The dose volume was 5 mL/Kg ([…] per 25 g mouse). Mice were injected at the following dose levels: Degludec 1.5 IU/kg (model) and insulin analog #1 (FIG. 1A) at 0.04 mg/kg, 0.12 mg/kg, or 0.36 mg/kg. All insulin compounds (Degludec and analog #1) were diluted with 0.9% sodium chloride (vehicle, normal saline). Vehicle controls were comprised of 0.9% sodium chloride.
(§3) Blood collection for glucose plasma concentration measurements occurred at Oh (0-60 min before dosing), 0.5 h, 1 h, 2 h, 4 h, 6 h, 8 h, 10 h, 12 h, 18 h, 24 h, 30 h after the single dose. Moreover, the mouse body weight was measured daily for 3 days.

IGF-1R = molecular target: T1, IGF-1R (Homo sapiens, UniProt P08069); test: IGF-1R activation in IGF-1R (Luc) HEK293 reporter cells; type: cell-based; details: up to 4 μg/mL (1.6 μM) concentration
T1 construct: expressed in transfected cells; host or cells: IGF-1R (Luc) HEK293 reporter cells
From the text: Insulin-like growth factor (IGF-1R) is a tyrosine kinase type receptor that regulates cell growth and proliferation and can be activated by IGF-1, IGF-2, and insulin. […]

db/db mice = test: Glucose profile after single subcutaneous dose in db/db type II diabetes mouse model; type: in vivo
From the text: Murine db/db murine strain is a well-accepted type II diabetes model that recapitulates most aspects of human type II diabetes. In particular, db/db mice carry mutations in the leptin receptor that lead to obesity, decreased insulin receptor sensitivity, and subsequent increased levels of blood glucose, decreased β-cell function, and elevated HBA1c levels. Like human Type II diabetes, the diabetic condition in db/db mice is progressive. Animals have near normal or slightly elevated plasma glucose (PG) and relatively normal β-cell function at 6 weeks of age. Fasting plasma glucose (FPG) levels gradually elevate over several weeks and β-cell function declines such that by about 16 weeks of age FPG is very high (>400 mg/dL) and j-cell function has entirely degenerated. The db/db mouse model may be used in an acute setting but is more typically used in a chronic setting to evaluate a test compound's cumulative action over several weeks of treatment. The variability is reasonably low such that good statistically significant effects are seen with validating compounds with group sizes of about 8 animals.
as §2, with “Mice were injected at the following dose levels: Degludec 1.5 IU/kg (model) and insulin analog #1 (FIG. 1A) at 0.04 mg/kg, 0.12 mg/kg, or 0.36 mg/kg.” left out
as §3

[7] = SD rats, 175 nmol-200 nmol s.c.

T1 sequence (P08069 31-736 limits assumed): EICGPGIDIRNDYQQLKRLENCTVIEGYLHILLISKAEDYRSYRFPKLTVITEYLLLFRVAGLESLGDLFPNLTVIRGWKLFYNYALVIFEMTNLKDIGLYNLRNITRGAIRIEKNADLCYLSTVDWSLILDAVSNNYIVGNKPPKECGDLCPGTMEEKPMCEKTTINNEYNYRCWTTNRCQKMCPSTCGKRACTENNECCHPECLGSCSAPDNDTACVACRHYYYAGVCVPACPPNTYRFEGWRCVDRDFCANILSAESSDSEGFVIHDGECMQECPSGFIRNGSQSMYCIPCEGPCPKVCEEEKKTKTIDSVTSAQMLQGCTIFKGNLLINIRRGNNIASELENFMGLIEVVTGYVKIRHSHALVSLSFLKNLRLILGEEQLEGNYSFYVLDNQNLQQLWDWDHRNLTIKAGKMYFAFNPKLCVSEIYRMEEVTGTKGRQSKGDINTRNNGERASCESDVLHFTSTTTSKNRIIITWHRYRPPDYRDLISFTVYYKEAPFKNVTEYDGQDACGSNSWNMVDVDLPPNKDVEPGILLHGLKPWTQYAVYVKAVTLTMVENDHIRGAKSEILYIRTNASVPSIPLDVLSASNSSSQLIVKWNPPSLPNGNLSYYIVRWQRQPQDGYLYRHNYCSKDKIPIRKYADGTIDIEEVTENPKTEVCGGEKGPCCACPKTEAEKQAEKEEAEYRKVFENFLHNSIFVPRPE
T1 sequence (P08069 741-1367 limits assumed): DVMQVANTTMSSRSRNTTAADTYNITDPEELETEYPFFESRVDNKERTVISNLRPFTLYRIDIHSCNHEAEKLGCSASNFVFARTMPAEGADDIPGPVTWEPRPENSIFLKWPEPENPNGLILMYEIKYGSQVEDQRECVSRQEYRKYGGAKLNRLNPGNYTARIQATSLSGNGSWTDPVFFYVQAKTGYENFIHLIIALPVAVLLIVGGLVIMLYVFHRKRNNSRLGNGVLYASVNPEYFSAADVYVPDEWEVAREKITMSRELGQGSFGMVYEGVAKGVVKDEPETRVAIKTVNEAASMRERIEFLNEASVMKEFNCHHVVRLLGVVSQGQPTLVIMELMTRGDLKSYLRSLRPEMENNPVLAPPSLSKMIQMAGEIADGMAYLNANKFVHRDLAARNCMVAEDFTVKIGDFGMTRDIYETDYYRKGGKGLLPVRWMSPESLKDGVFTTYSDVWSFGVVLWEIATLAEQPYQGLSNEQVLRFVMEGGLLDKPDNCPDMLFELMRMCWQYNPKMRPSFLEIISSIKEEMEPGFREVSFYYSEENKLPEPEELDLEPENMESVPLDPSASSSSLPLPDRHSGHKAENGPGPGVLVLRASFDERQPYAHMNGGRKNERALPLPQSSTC

Substance	duration of decrease in glucose levels compared to rats injected with Degludec (Sprague-Dawley (SD) rats [1]; [7])	duration of c-peptide level compared to rats injected with Degludec (Sprague-Dawley (SD) rats [2])	rate of body weight increase compared to rats injected with Degludec [3]	glucose area under the curve (AUC) values (Sprague-Dawley (SD) rats [1]; SD rats)	also measured
APi3546: A-chain SEQ ID NO: 11 (A14 Aad), B-chain SEQ ID NO: 18 (B16 His(5-I), B25 3-Pal); structure FIG. 1I	longer lasting decrease in glucose levels	maintained the level of c-peptide for a longer time	lower rate of body weight increase		
APi3545: A-chain SEQ ID NO: 11 (A14 Aad), B-chain SEQ ID NO: 16 (B16 His(5-I), B25 Ala(4-thiazoyl)); structure FIG. 1H	longer lasting decrease in glucose levels	maintained the level of c-peptide for a longer time			glucose lowering effect / biopotency measured in ICR mice (ICR mice [4]): most active; duration of action among insulin analogs tested (Sprague-Dawley (SD) rats [1]; structure-activity relationship (Example 5)): most long-acting insulin analog tested; time undetectable c-peptide level was maintained (Sprague-Dawley (SD) rats [2]): up to 72 hours
insulin reference standard: insulin reference standard (27.2 IU/mg) of chapter <1211> of Chinese Pharmacopeia biopotency test					potency of insulin reference standard (ICR mice [5]): 27.2 IU/mg
insulin analog 1: A-chain SEQ ID NO: 3 (A14 Gla), B-chain SEQ ID NO: 4 (B16 and B25 His(3-Me)); structure FIG. 1A	longer lasting decrease in glucose levels	maintained the level of c-peptide for a longer time	lower rate of body weight increase		effect on animal body weight [6]: no significant effect; IGF-1R activation (IGF-1R; FIG. 19, listed as 1): none of insulin analogs 1, 2, 3, and 4 showed IGF-1R activation; also recorded: lack of IGF-1R activation; glucose profile compared to db/db vehicle control (db/db mice; 0.12 mg/kg, s.c. single dose, 2, 4, 6 and 8 hr time points, FIG. 2): statistically significantly lower; response (glucose level decrease) versus dose (db/db mice; 0.36 mg/kg, 0.12 mg/kg and 0.04 mg/kg doses): dose proportional; glucose profile compared to db/db vehicle control (db/db mice; 0.36 mg/kg, entire time course starting from 2 hr time point): statistically lower; glucose profile compared to db/db vehicle control (db/db mice; 0.36 mg/kg, s.c. single dose, 2, 4, 6 and 8 hr time points, FIG. 2): statistically significantly lower
insulin analog 2: A-chain SEQ ID NO: 3 (A14 Gla), B-chain SEQ ID NO: 6 (B16 and B25 Pal, B28 Pro); structure FIG. 1B		maintained the level of c-peptide for a longer time	lower rate of body weight increase	follow the order of their specific activities	glucose lowering effect / biopotency measured in ICR mice (ICR mice [4]): most active; duration of decrease in glucose levels compared to rats injected with Degludec (Sprague-Dawley (SD) rats [1]; SD rats, 175 nmol-200 nmol s.c., listed as 2): longer lasting decrease in glucose level; IGF-1R activation (IGF-1R; FIG. 19, listed as 2): none of insulin analogs 1, 2, 3, and 4 showed IGF-1R activation; also recorded: lack of IGF-1R activation; c-peptide lowering effect among analogs tested (Sprague-Dawley (SD) rats [2]): most profound and longest-lasting c-peptide lowering effect
insulin analog 3: A-chain SEQ ID NO: 3 (A14 Gla), B-chain SEQ ID NO: 8 (B16 and B25 Pal, B28 Hyp); structure FIG. 1C	longer lasting decrease in glucose levels	maintained the level of c-peptide for a longer time		follow the order of their specific activities	magnitude of glucose lowering effect among analogs tested (Sprague-Dawley (SD) rats [1]; [7]): most profound glucose lowering effect; IGF-1R activation (IGF-1R; FIG. 19, listed as 3): none of insulin analogs 1, 2, 3, and 4 showed IGF-1R activation; also recorded: lack of IGF-1R activation
insulin analog 4: A-chain SEQ ID NO: 3 (A14 Gla), B-chain SEQ ID NO: 10 (B16 and B25 Pal, B28 Pip); structure FIG. 1D	longer lasting decrease in glucose levels	maintained the level of c-peptide for a longer time	lower rate of body weight increase	follow the order of their specific activities	IGF-1R activation (IGF-1R; FIG. 19, listed as 4): none of insulin analogs 1, 2, 3, and 4 showed IGF-1R activation; also recorded: lack of IGF-1R activation
Degludec [reference compound]					effect on animal body weight [6]: no significant effect
